In a compilation of properties of binary mixtures (doi:10.1016/j.jct.2016.09.024):

Assay: xn = mol fraction of the nth substance listed
Settings: 100 kPa

CCO + CCCC[N+](C)(C)C.O=S(=O)([N-]S(=O)(=O)C(F)(F)F)C(F)(F)F
x1 = 1
Settings	speed of sound [m/s]
293.15 K	1160.4
308.15 K	1108.9

CCO + CCCC[N+](C)(CCCC)CCCC.O=S(=O)([N-]S(=O)(=O)C(F)(F)F)C(F)(F)F
x1 = 1
Settings	speed of sound [m/s]
293.15 K	1160.4
298.15 K	1143.3
303.15 K	1126.1

CCCC[N+](C)(C)C.O=S(=O)([N-]S(=O)(=O)C(F)(F)F)C(F)(F)F + CCO
speed of sound [m/s]
Settings	293.15 K	298.15 K	303.15 K	308.15 K
x1 = 0.01	1160.4	–	1126.8	1110.1
x2 = 0	1239.5	1228.9	1218.3	1208.1
x2 = 0.0605	1237.5	1226.8	1216.1	1205.9
x2 = 0.101	1235.4	1224.6	1214	–
x2 = 0.1991	–	1220.2	1209.5	1199
x2 = 0.3	1225.3	1214.6	–	1193.1
x2 = 0.4096	1218.1	1206.9	1195.8	1185
x2 = 0.4998	1210.5	1199.2	1187.9	–
x2 = 0.5996	1200.8	1189.1	–	1166.4
x2 = 0.6504	1195.1	1183.1	–	1159.6
x2 = 0.7501	–	1169.2	1156.6	1144.4
x2 = 0.8514	1166.7	1152.8	–	1126.2
x2 = 0.88	1163.4	–	1134.6	1117
x2 = 0.92	1158.1	1143.6	1129.8	1114.5
x2 = 0.93	1158	1142.8	1128	1113.2
x2 = 0.94	1157.5	1142.1	1127	1112.2
x2 = 0.9609	1157.2	1141.7	1126	1110.5
x2 = 0.97	–	1142.1	–	1110.4
x2 = 0.98	–	1142.2	1125.9	1109.9

CCCC[N+](C)(CCCC)CCCC.O=S(=O)([N-]S(=O)(=O)C(F)(F)F)C(F)(F)F + CCO
speed of sound [m/s]
Settings	293.15 K	298.15 K	303.15 K	308.15 K
x1 = 0.0149	–	1146.8	1130.4	1114.1
x2 = 0	1291.7	1276	1261.1	–
x2 = 0.0636	–	1271.9	1257.5	1244.1
x2 = 0.0711	1285.8	1272.2	–	1244.1
x2 = 0.1235	–	1268.1	1254.2	–
x2 = 0.2012	1277.4	1263.2	1249.4	1236.2
x2 = 0.3995	1262.3	–	1235.2	1221.9
x2 = 0.6009	1241.4	1227.8	1214.4	1200.8
x2 = 0.7187	1224.1	1210.4	1196.3	1182.7
x2 = 0.8118	1205.7	1192	–	1163.3
x2 = 0.8605	1194.3	–	–	1151.2
x2 = 0.9076	1181.8	1166.7	1151.6	1136.7
x2 = 0.93	1175.6	1160.2	–	1129.9
x2 = 0.95	1170.7	–	–	1123.5
x2 = 0.96	–	1152.3	–	1120.9
x2 = 0.9702	1165.7	–	1133.6	–

C[N+](C)(C)CCO.O=S(=O)([N-]S(=O)(=O)C(F)(F)F)C(F)(F)F + CCO
speed of sound [m/s]
Settings	293.15 K	298.15 K	303.15 K	308.15 K
x2 = 0.7051	1221.8	1207.6	1195.3	1183.5
x2 = 0.801	–	1183.2	1170	1157.2
x2 = 0.9002	1172.1	1156.6	1142.5	1128.2
x2 = 0.9601	1162.4	1145.9	1130.3	1115

CCO + C[N+](C)(C)CCO.O=S(=O)([N-]S(=O)(=O)C(F)(F)F)C(F)(F)F
x1 = 1
Settings	speed of sound [m/s]
303.15 K	1126.1
308.15 K	1108.9
